Peptide text beside a SMILES is read from it.

As for `CC(=O)Nc1ccc(S(I)=C(N(C)C)N(C)C)cc1` (configuration not stated), the log partition coefficient (logP) (as a rule, a log measure of how a compound divides between an organic and an aqueous phase) is -1.58.
On to `CC1(C)C=Cc2ccccc2O1`, for which the lipophilicity (logP) was found to be 3.31.
In turn, `COc1cc2c(c(OC)c1OC)-c1ccc(O)c(=O)cc1[C@@H](NC(=O)C(F)(F)F)CC2` gave a log partition coefficient (logP) of 1.82.
The compound `CCSc1ccc2c(c1)N(CCCN1CCN(C)CC1)c1ccccc1S2` showed a log partition coefficient (logP) of 5.41.
In the case of `CN(C)C(=O)Nc1cccc(N)c1` it was -0.1.
`CC1CO1` (configuration not stated) gave a logP of 0.03.
In turn, `CC(C)(C)C1(O)CCN2CC3c4ccccc4CCc4cccc(c43)C2C1` (configuration not stated) displayed a logP of 5.2.
`N#Cc1cccs1` yielded a logP of 1.27.
As to `Nc1cc[nH]c(=O)n1`, the logP is -1.73.
For the compound `COC(=O)C(F)(F)F`, the log partition coefficient (logP) was 0.6.
Consider `NC(=O)c1ccc(I)cc1`, for which the lipophilicity (logP) worked out at 1.99.
Regarding `c1ccc2nc3ccccc3cc2c1`, the log partition coefficient (logP) stood at 3.4.
Take `O=C1CC(Sc2ccccc2)N1` (configuration not stated): the logP amounted to 1.58.
In turn, `COC(=O)CCCC(=O)OC` had a lipophilicity (logP) of 0.62.
Turning to `Cc1ccccc1C#N`, the logP worked out at 2.21.
As for `COc1ccc(NC(=O)NN=Cc2ccc[nH]2)cc1`, the logP came to 2.67.
The compound `FC(F)(F)Sc1ccccc1` had a logP of 3.57.
`CCNC(=O)c1ccc(S(N)(=O)=O)cc1`: the logP amounted to 0.03.
Regarding `O=[N+]([O-])c1ccc2nc(C(F)(F)F)[nH]c2c1`, the logP is 2.68.
For `CC(=O)Oc1cccc2ccccc12` the value was 2.78; for `COP(=S)(OC)Oc1ccc(S(=O)(=O)N(C)C)cc1`, 2.23; for `NNC(=O)c1ccncc1`, -0.7.
For `On1nc2ccccc2n1`, the lipophilicity (logP) was found to be 0.69.
In the case of `O=C(NC(CO)C(O)c1ccc([N+](=O)[O-])cc1)C(F)F` (configuration not stated) it was 0.42; in that of `C=CC(=O)OCC`, 1.32.
In the case of `CCOCCOCC` it was 0.66; in that of `O=c1n[n+]([O-])ccn1C1OC(CO)C(O)C1O` (configuration not stated), -2.43; in that of `NS(=O)(=O)Cc1ccccc1`, 0.13.
Compound `Oc1ccccc1-c1ccccc1` gave a logP of 3.09.
As to `CCCCCCCCOc1ccc(NC(=O)OCCN2CCCCC2)cc1`, the log partition coefficient (logP) is 6.44.
On to `O=C(Cc1ccccc1)c1ccccc1`, for which the logP worked out at 3.18.
On to `CCN(CC)C(=O)N(CC)N=O`, for which the logP turned out to be 1.54.
In turn, `CNC(=O)Oc1ccc(C(C)(C)C)cc1` registered a log partition coefficient (logP) of 3.06.
Turning to `C1=C(c2ccccc2)CCCC1`, the logP came out at 4.53.
For the compound `O=C(O)CCl`, the logP was determined as 0.22.
In the case of `O=C(O)Cc1ccc(I)cc1` it was 2.64; in that of `O=C(O)COc1cccc(C(=O)O)c1`, 1.11; in that of `Nc1nc(N)nc(-c2ccccc2I)n1`, 1.41.
For `Clc1cnc(Cl)c(Cl)c1` the value was 3.11.
Turning to `C=C1C[C@]23C[C@@]1(O)CC[C@H]2[C@@]12C=C[C@H](O)[C@@](C)(C(=O)O1)[C@H]2[C@@H]3C(=O)O`, the logP is 0.24.
Compound `O=[N+]([O-])c1ccc(C=NO)o1` displayed a logP of 0.3.
Compound `CC(=O)Nc1c(C)cc(O)cc1C` returned a logP of 0.31.
Compound `Brc1ccc2ncccc2c1` yielded a log partition coefficient (logP) of 2.83.
Regarding `Nc1cccc2cccnc12`, the logP was 1.79.
In the case of `CCCCNc1nc(NCC)nc(SC(F)F)n1` it was 4.51; in that of `CCCCl`, 2.04; in that of `OCCc1ccccn1`, 0.12.
In the case of `CNC(=O)c1ccccc1`, the log partition coefficient (logP) is 0.86.
In the case of `CCCOc1ccc([N+](=O)[O-])c(S(C)(=O)=O)c1`, the logP was found to be 1.1.
`CC(=O)[C@@]1(O)CC[C@H]2[C@@H]3C[C@H](C)C4=CC(=O)C=C[C@]4(C)[C@@]3(F)[C@@H](O)C[C@@]21C` had a lipophilicity (logP) of 2.
`COC(=O)CCCc1ccccc1` came in with a lipophilicity (logP) of 2.77.
Compound `COc1cccc(C(=O)NC2CC3CCC(C2)N3Cc2ccccc2)c1OC` (configuration not stated) returned a logP of 3.24.
For `CC(=O)NCc1ccccc1` the value was 0.95; for `COc1ccccc1N(C)C`, 1.63; for `CN1CCN(CC(=O)N/N=C/c2ccc([N+](=O)[O-])o2)CC1`, -0.1.
Regarding `CCCCCOC(=O)c1ccc(N)cc1`, the log partition coefficient (logP) turned out to be 3.48.
The compound `CN1CCN(CCCN2c3ccccc3Sc3ccc(Cl)cc32)CC1` yielded a logP of 4.88.
In the case of `O=C(Nc1ccccc1)c1ccccc1O` it was 3.27.
In the case of `COc1cc(C(=O)NN)ccn1`, the logP was -0.1.
`NC(=O)CCc1ccncc1`: the lipophilicity (logP) is -0.25.
With `COC(=O)c1ccccc1S(I)=C(N(C)C)N(C)C` (configuration not stated), the logP is -0.7.
In turn, `CC1(C)CCC(C)(C)O1` yielded a lipophilicity (logP) of 2.06.
For the compound `CN(C)C(N(C)C)=S(I)c1cccc(Cl)c1Cl` (configuration not stated), the logP was 0.29.
For `c1cocn1` the value was 0.12; for `CCCC(=O)OCC(=O)C1(O)C(C)CC2C3CCC4=CC(=O)C=CC4(C)C3(F)C(O)CC21C` (configuration not stated), 3.55.
For `COc1cccnc1CCCCNc1ncc(Cc2ccc(C)nc2)c(=O)[nH]1` the value was 2.58; for `CCN(O)C(N)=O`, -0.1; for `CC(C)CO`, 0.76.
On to `COc1ccc(Cl)nn1`, for which the log partition coefficient (logP) stood at 0.89.
As for `CC(=O)c1ccccc1N`, the logP stood at 1.63.
In the case of `NCCCCc1cccnc1` it was 0.88.
Compound `Ic1ccc(I)cc1` had a log partition coefficient (logP) of 4.11.
For `CC12CCC(=O)C=C1CCC1C3CCC4(CCC(=O)O4)C3CCC12C` (configuration not stated) the value was 2.98.
Turning to `c1ccc(Sc2ccccc2)cc1`, the lipophilicity (logP) came to 4.45.
Take `N#Cc1cccc2cccnc12`: the log partition coefficient (logP) amounted to 1.39.
Compound `CN(C)c1nc(N)nc(N(C)C)n1` yielded a log partition coefficient (logP) of 1.2.
In the case of `O=S(Cc1ccccc1)Cc1ccccc1`, the lipophilicity (logP) was found to be 1.99.
`CNC(=O)Oc1ccc(OC)cc1` returned a logP of 1.2.
In the case of `CC(=O)C(=Cc1ccc(C)cc1)C(C)=O` it was 2.14.
As to `O=[N+]([O-])c1cc[n+]([O-])cc1`, the logP was -0.55.
Compound `FC(F)(F)F` registered a log partition coefficient (logP) of 1.18.
In the case of `c1ccc(SSc2ccccc2)cc1` it was 4.41; in that of `O=C(CNC(=O)c1ccccc1)Oc1ccccc1`, 2.31.
In the case of `Cc1ccc(C)c(C)c1` it was 3.63; in that of `CC(=O)ONc1ccnc2ccccc12`, 0.97; in that of `Fc1cc(F)cc(Cn2cc[nH]c2=S)c1`, 1.98.
On to `Cc1ccc(C(=O)NN)cc1`, for which the log partition coefficient (logP) came to 0.72.
As to `NCCCCCc1ccccn1`, the logP was found to be 1.32.
Turning to `CC(=O)N[C@@H](CC(C)C)C(=O)N[C@@H](CC(N)=O)C(N)=O`, the lipophilicity (logP) is -1.3.
On to `CCOC(=O)C(C)NC(=O)CCCCSc1ncnc2nc[nH]c12` (configuration not stated), for which the logP stood at 1.51.
`OCCBr`: the logP amounted to 0.23.
On to `CCN(CC)CCOC(=O)C=Cc1ccc(F)cc1`, for which the logP worked out at 3.52.
As for `O=Nc1ccc(O)cc1`, the logP came out at 1.29.
With `CC(C)c1ccc([N+](=O)[O-])cc1`, the lipophilicity (logP) stood at 3.45.
In the case of `CNC(=O)Oc1ccc(SC)c(C)c1` it was 2.47.
For `CN(N=O)C(=O)Nc1ccc(F)cc1` the value was 1.88; for `C1OC1C1CO1` (configuration not stated), -0.52.
Turning to `Cc1cccc(C)n1`, the logP amounted to 1.68.
For the compound `Cc1nc([N+](=O)[O-])cn1CCO`, the logP is -0.59.
With `CCC(=O)C(CS(=O)(=O)c1ccccc1)c1ccc(OC)cc1` (configuration not stated), the lipophilicity (logP) came out at 2.18.
`CNc1nc2ccccc2o1` had a logP of 1.82.
`CCOc1ccc2nc(S(N)(=O)=O)sc2c1` showed a log partition coefficient (logP) of 2.01.
Consider `COP(=O)(OC)Oc1ccc([N+](=O)[O-])c(C(C)C)c1`, for which the logP came to 2.57.
For `CN(C)C(=O)c1cccnc1`, the logP was -0.48.
In turn, `NNC(=O)c1ccc(I)cc1` yielded a lipophilicity (logP) of 1.55.
`C=C(Br)CC1(C(C)CCC)C(=O)NC(=O)NC1=O` (configuration not stated) showed a logP of 2.09.
`CCC1OC(=O)C(C)C(OC2CC(C)(OC)C(O)C(C)O2)C(C)C(OC2OC(C)CC(N(C)C)C2O)C(C)(O)CC(C)C(=O)C(C)C(O)C1C` (configuration not stated): the lipophilicity (logP) stood at 3.12.
In the case of `COC1CC(OC2CCC3(C)C(CCC4C3CCC3(C)C(C5=CC(=O)OC5)C(OC(C)=O)CC43O)C2)OC(C)C1OC(C)=O` (configuration not stated), the lipophilicity (logP) is 2.95.
Regarding `FC(F)(F)c1ccccc1Cl`, the logP came out at 3.53.
`CN(C)C1=CC(=O)C(N(C)C)=CC1=O` showed a log partition coefficient (logP) of 1.03.
As for `CNC(=O)CSP(=S)(OC)OC`, the log partition coefficient (logP) was found to be 0.78.
Regarding `c1ccc2c(c1)cnc1ccccc12`, the logP was 3.48.
As for `C=CCC1(CC=C)C(=O)NC(=O)N(C)C1=O`, the lipophilicity (logP) came out at 1.55.
For `O=[N+]([O-])c1cccc(Br)c1` the value was 2.64.
As to `O=C(C=Cc1ccccc1)Nc1ccccc1`, the logP turned out to be 3.61.
On to `N#CC#N`, for which the logP stood at 0.07.
On to `CC(=O)C(=Cc1ccccc1Cl)C(C)=O`, for which the log partition coefficient (logP) stood at 2.19.
Compound `CC[C@H](C)[C@H](NC(=O)[C@H](CC(C)C)NC(C)=O)C(N)=O` (Ac-Leu-Ile-NH2) registered a logP of 0.68.
In the case of `c1ccc(COc2ccccc2)cc1` it was 3.79; in that of `CSc1cccc(N)c1`, 1.45; in that of `c1ccc2c(c1)ccc1c3ccc4ccccc4c3[nH]c21`, 6.4.
`O=[N+]([O-])c1ccc(C=NO)cc1` showed a log partition coefficient (logP) of 1.95.
As for `CC(C)c1ccc(C(N)=O)cc1`, the logP was 2.14.
The compound `CCOC(=O)/C(=C\c1ccccc1Cl)C(C)=O` yielded a lipophilicity (logP) of 2.84.
In the case of `CCCCCOc1cccc(O)c1` it was 3.63.
Compound `NC(=O)CCCCc1cccnc1` came in with a log partition coefficient (logP) of 0.4.
For `O=C(O)CCCC(=O)O`, the log partition coefficient (logP) is -0.29.
In the case of `CC(=O)Nc1cccs1`, the log partition coefficient (logP) is 1.1.
The compound `CCCCNCc1cccnc1` came in with a log partition coefficient (logP) of 1.34.
The compound `COc1cc(NCc2ccc3nc(N)nc(N)c3c2C)cc(OC)c1OC` displayed a logP of 2.55.
Take `O=C1CCCCCCCCCCC1`: the log partition coefficient (logP) turned out to be 4.1.
`CC(C)=CC1C(C(=O)OCc2ccccc2)C1(C)C` (configuration not stated) registered a log partition coefficient (logP) of 5.49.
Regarding `C=CCC1(C(C)CCC)C(=O)NC(=S)NC1=O` (configuration not stated), the lipophilicity (logP) turned out to be 3.23.
`CC(Cl)(Cl)Cl` yielded a logP of 2.49.
`Brc1ccc2[nH]ccc2c1`: the logP came out at 3.
Compound `CCCCn1nnc2ccccc21` registered a log partition coefficient (logP) of 2.57.
Consider `Nc1cccc(N)c1`, for which the log partition coefficient (logP) was -0.33.

The record behind these values is the OPERA property sets (Mansouri et al. 2018).
